According to US20100178334A1, “Oral Pharmaceutical Dosage Form Comprising as Active Ingredients a Proton Pump Inhibitor together with Acetyl Salicyclic Acid” (priority 2005, published 2010):

Experiments:
[1] = test system: gastric and/or duodenal ulcers in Helicobacter pylori-negative patients ≧60 years receiving ASA; assay: randomized, multicenter, placebo-controlled trial of esomeprazole 20 mg once daily for 26 weeks in patients receiving ASA; type: in vivo, human
Description: Patients were randomized to receive either esomeprazole 20 mg (administered as esomeprazole magnesium, i.e. Nexium® owned by AstraZeneca AB) or placebo once daily for 26 weeks. The primary outcome variable was the presence of gastric and/or duodenal ulcers at endoscopy over the 26-week period. A total of 991 patients, all receiving ASA in doses varying between 75-325 mg/day (57.1% male, mean age 69.3 years, mean acetyl salicylic acid (ASA) dose 124.0 mg/day) were included in the intent-to-treat population. The cumulative proportion of patients without either gastric or duodenal ulcer at 26 weeks was 98.2% with esomeprazole, compared with 93.8% with placebo (life table estimates, p=0.0007). The incidence of gastric ulcers was lower in patients taking esomeprazole than in those taking placebo (1.2% vs. 3.8%), as was the incidence of duodenal ulcers (0.4% and 1.6% for esomeprazole and placebo, respectively). Eight patients (1.6%) had developed an ulcer, in the esomeprazole group by 6 months, compared with 27 patients (5.4%) in the placebo group. This corresponded to a relative reduction of developing an ulcer of 70% when taking esomeprazole rather than placebo. A total of 95.6% of patients treated with esomeprazole had no esophageal lesions at week 26, compared with 81.7% of patients treated with placebo (p<0.0001).

[2] = test system: damages on the mucosa caused by ASA; conditions: concomitant administration for patients treated with ASA; cited from earlier work
[3] = test system: ulcer complication like bleeding from the stomach or the duodenum; conditions: cited from earlier work
[4] = esomeprazole 20 mg once daily, 26 weeks, patients on ASA

COc1ccc2nc([S@@+]([O-])Cc3ncc(C)c(OC)c3C)[nH]c2c1 [esomeprazole]
resolution of investigator-assessed upper gastrointestinal symptoms ([1]; all symptoms, versus placebo): higher with esomeprazole than with placebo | relative reduction of developing an ulcer when taking esomeprazole rather than placebo ([1]; by 6 months, versus placebo): 70% | safety and tolerability ([1]; esomeprazole 20 mg once daily for 26 weeks): safe and well tolerated | incidence of duodenal ulcers [1, 4]: 0.4% | incidence of gastric ulcers [1, 4]: 1.2% | patients who had developed an ulcer by 6 months ([1]; esomeprazole 20 mg once daily, patients on ASA, eight patients): 1.6% | proportion of patients without esophageal lesions at 6 months ([1]; patients with no lesions and those with Los Angeles grade A lesions at baseline, versus placebo): higher with esomeprazole than with placebo

Cc1c(OCC(F)(F)F)ccnc1C[S+]([O-])c1nc2ccccc2[nH]1 (stereo not shown) [lansoprazole]
effect on damages on the mucosa caused by ASA [2]: reduce damages on the mucosa caused by ASA

CC(=O)Oc1ccccc1C(=O)O [ASA, acetyl salicylic acid]
relative risk of developing an ulcer complication like bleeding from the stomach or the duodenum ([3]; daily dose as low as 75 mg (Weil et al)): doubles | hospital admissions due to adverse drug reactions caused by ASA ([3]; epidemiological data from the UK (Pirmohamed et al)): 18%
